# Source: patent US10821151B2, “Compositions and methods for treating cancer and persistent viral infections” (SUSAVION BIOSCIENCES, INC., priority 2015, dated 2020)
# Positions of bridges follow the written chain, without caps; N, C: chain ends. Chains are numbered I, II in the order given. No end group written: not given here.
# Assays:
# cells = assay: acridine orange / ethidium bromide cytotoxicity assay; assay type: cell-based; conditions: 1 mM
# Method: (§1) Human PBMCs were incubated 3 days with peptides and then assay plates were stained with the soluble tetrazolium-based dye MTS to determine cell viability. The mitochondrial enzymes of metabolically active cells metabolize MTS to yield a colored formazan product. After an incubation period of 4 to 6 h at 37° C., the plates were read spectrophotometrically. Cells treated with peptide SVH1C alone or with diluted anti-HIV antiserum were 100±2% viable at peptide concentrations of 1 nM to 1 μM. In another assay to determine cytotoxicity, cells were doubly stained with acridine orange and ethidium bromide. In this assay, viable cells fluoresce green while dead cells fluoresce red.
# MTS cell viability assay = assay type: cell-based; conditions: human, human PBMCs; 3 days, peptide alone or with diluted anti-HIV antiserum, 1 nM to 1 μM
# Method: as §1
# NKG2D = biological target: T1, NKG2D (Homo sapiens, UniProt P26718); assay: solid-phase binding assay with Fc-chimeric NKG2D; conditions: for inhibition of binding of SVH1C to NKG2D: fetuin 5, 10, 30 μM, sialyllactose 12, 20, 40 μM
# T1 sequence (P26718 78-216 limits assumed): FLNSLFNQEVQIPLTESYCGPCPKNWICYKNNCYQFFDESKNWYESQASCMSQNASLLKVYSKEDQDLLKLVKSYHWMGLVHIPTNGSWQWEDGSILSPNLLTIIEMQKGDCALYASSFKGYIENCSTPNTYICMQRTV
# Siglec-1 = Siglec-1 (Homo sapiens, UniProt Q9BZZ2); assay: solid-phase binding assay
# Siglec-1, sequence (Q9BZZ2 20-1709): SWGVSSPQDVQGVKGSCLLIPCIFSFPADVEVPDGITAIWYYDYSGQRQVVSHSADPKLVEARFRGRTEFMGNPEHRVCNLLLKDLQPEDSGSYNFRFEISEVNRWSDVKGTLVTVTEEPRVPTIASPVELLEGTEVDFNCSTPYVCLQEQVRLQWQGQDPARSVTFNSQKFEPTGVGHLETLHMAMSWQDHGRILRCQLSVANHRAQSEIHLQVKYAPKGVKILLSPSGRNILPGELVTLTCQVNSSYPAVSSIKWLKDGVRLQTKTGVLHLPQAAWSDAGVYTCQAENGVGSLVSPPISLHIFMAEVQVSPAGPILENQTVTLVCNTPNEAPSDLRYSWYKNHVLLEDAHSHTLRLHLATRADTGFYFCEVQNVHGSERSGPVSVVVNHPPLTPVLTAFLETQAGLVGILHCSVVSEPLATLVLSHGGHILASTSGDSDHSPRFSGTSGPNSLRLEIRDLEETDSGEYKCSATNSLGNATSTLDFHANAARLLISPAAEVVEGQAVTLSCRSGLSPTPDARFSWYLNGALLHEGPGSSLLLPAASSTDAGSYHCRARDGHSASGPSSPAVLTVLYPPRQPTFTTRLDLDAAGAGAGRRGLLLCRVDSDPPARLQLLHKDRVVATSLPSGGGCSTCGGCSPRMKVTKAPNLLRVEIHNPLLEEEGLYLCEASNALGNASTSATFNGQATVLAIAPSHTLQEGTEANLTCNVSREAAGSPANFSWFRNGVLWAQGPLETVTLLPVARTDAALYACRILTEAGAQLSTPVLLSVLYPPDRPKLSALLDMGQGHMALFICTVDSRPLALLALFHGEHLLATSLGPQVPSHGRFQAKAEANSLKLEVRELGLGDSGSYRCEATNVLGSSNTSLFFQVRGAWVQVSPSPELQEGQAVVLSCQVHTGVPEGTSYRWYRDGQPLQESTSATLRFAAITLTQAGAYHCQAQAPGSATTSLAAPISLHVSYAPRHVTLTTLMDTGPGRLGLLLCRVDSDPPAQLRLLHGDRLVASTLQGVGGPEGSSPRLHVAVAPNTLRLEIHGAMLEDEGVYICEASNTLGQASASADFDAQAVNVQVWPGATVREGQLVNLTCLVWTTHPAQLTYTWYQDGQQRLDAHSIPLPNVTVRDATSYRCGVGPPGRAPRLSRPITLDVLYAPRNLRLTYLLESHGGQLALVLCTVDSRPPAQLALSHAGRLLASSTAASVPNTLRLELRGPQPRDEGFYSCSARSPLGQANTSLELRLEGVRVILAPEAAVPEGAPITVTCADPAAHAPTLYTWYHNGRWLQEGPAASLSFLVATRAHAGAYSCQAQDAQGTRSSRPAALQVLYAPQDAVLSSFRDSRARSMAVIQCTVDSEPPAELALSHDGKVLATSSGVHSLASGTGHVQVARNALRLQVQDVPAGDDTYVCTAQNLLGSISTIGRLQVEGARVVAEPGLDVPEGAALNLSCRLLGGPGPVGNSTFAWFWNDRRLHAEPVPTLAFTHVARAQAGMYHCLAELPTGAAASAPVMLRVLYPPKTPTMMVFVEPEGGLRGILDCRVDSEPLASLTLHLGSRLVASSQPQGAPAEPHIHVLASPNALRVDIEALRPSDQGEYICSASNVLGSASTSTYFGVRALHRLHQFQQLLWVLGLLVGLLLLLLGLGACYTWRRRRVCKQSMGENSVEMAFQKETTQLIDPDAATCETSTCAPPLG
# Method: (§2) The buffer in these assays was PBS containing 0.05% Tween-20. […] The receptors were Fc-chimeras and were assayed in protein A/G-coated microtiter wells.
# (§3) Biotinylated peptides were then incubated with the receptors, the wells were stringently washed and the bound peptide was detected by binding of streptavidin conjugated with peroxidase.
# dectin-1 = biological target: T2, dectin-1 (Homo sapiens, UniProt Q9BXN2); assay: solid-phase binding assay
# T2 sequence (Q9BXN2 1-247): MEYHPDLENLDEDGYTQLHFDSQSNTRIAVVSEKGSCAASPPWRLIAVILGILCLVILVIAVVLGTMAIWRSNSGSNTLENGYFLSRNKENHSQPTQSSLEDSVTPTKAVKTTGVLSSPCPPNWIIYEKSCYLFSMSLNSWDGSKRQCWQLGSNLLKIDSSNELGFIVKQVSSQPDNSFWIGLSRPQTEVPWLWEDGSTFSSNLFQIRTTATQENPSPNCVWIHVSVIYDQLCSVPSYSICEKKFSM
# Method: as §2, §3
# CLEC9a = CLEC9a (Homo sapiens, UniProt Q6UXN8); assay: solid-phase binding assay
# CLEC9a, sequence (Q6UXN8 whole entry): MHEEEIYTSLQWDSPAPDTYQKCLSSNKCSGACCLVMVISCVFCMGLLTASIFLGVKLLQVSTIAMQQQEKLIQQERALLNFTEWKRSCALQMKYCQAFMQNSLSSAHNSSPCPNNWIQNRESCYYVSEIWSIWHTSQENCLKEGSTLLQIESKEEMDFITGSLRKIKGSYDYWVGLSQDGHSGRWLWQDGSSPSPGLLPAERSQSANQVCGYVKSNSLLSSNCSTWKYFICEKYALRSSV
# Method: (§4) The buffer in these assays was PBS containing 0.05% Tween-20. […] The receptors were Fc-chimeras and were assayed in protein A/G-coated microtiter wells. Siglec-1 and CLEC10a contained a C-terminal His tag and were assayed in a separate experiment with Ni-coated wells. SEM was determined from four independent experiments run in duplicate. Inhibition by fetuin is shown by the average of two assays in which the glycoprotein was added at 10 μM (second, black bar) or 30 μM (third, light grey bar) in each receptor group. Binding was measured by a colorimetric assay of peroxidase.
# (§5) The buffer in these assays was PBS containing 0.05% Tween-20. […] The receptors were Fc-chimeras and were assayed in protein A/G-coated microtiter wells. The assay was similar to that described under FIG. 7.
# as §3
# CLEC10a = biological target: T3, CLEC10a (Homo sapiens, UniProt Q8IUN9); assay: solid-phase binding assay
# T3 sequence (Q8IUN9 1-316): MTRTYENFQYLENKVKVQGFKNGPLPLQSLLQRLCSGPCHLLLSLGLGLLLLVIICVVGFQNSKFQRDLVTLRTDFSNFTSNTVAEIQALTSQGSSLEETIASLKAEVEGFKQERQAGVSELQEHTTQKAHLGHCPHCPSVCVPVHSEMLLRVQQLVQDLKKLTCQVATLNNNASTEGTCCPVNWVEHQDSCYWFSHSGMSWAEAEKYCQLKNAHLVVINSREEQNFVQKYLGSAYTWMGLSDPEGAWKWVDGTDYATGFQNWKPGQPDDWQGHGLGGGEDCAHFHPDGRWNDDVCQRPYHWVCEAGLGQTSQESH
# Method: as §4, §5, §3
# DC-SIGN = biological target: T4, DC-SIGN (Homo sapiens, UniProt Q9NNX6); assay: solid-phase binding assay
# T4 sequence (Q9NNX6 1-404): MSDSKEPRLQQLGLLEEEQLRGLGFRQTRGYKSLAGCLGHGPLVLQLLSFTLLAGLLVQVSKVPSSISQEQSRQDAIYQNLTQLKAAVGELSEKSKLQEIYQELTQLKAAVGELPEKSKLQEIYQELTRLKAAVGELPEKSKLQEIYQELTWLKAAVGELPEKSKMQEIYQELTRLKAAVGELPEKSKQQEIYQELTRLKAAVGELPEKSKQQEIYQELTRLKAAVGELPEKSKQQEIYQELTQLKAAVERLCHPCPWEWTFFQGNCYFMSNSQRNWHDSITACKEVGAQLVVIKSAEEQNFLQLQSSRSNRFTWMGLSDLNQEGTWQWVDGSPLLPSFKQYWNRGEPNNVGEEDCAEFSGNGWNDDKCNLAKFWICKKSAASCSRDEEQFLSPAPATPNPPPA
# Method: as §4, §5, §3
# ASGPR-1 = biological target: T5, ASGPR-1 (Homo sapiens, UniProt P07306); assay: solid-phase binding assay
# T5 sequence (P07306 1-291): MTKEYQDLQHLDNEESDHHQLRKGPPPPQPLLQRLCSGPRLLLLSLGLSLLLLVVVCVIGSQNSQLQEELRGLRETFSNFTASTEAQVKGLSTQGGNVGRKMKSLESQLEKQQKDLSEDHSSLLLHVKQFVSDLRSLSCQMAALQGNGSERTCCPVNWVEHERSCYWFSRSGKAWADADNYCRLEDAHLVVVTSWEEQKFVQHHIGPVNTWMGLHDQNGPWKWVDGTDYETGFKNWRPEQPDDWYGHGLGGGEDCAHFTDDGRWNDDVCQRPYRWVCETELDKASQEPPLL
# Method: as §2, §3
# ovarian cancer cell line = assay: mouse model of ovarian cancer, ascites monitored by body weight
# Method: Body weights of individual mice were measured during treatment with 1 or 0.1 nmole/g doses of SV6D (SEQ ID NO:5) injected subcutaneously every other day.
# In a mouse model of ovarian cancer, a cancer cell line was implanted into the peritoneal cavity. The cells form tumors and in time also release malignant cells into the cavity. The activity of SV6D to treat ovarian cancer was tested by alternate-day injections of 1 and 0.1 nanomole per gram of SV6D. Development of ascites was monitored by an increase in body weight of the animals.
# langerin = langerin (Homo sapiens, UniProt Q9UJ71); assay: solid-phase binding assay
# langerin, sequence (Q9UJ71 whole entry): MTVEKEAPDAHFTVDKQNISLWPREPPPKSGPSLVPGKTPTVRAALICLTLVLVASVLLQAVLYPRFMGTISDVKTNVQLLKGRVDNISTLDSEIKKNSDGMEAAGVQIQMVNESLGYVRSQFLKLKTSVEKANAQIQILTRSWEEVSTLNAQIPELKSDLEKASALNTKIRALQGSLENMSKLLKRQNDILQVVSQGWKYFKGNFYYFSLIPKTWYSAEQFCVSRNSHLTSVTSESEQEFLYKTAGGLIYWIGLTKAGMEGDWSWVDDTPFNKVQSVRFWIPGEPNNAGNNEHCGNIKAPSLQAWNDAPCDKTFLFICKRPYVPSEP
# Method: as §2, §3
# siglecs = assay: solid-phase binding assay, biotinylated peptide, streptavidin-peroxidase; conditions: fetuin added at 10 μM or 30 μM
# Method: The buffer in these assays was PBS containing 0.05% Tween-20. […] The receptors were Fc-chimeras and were assayed in protein A/G-coated microtiter wells. Siglec-1 and CLEC10a contained a C-terminal His tag and were assayed in a separate experiment with Ni-coated wells. SEM was determined from four independent experiments run in duplicate. […] Binding was measured by a colorimetric assay of peroxidase.
substance,measurement,setting,value
"I: NPSHPLSGGGGSKK-NH2 / II: NPSHPLSGGGGSK / III: NPSHPLSGGGGS / IV: NPSHPLSGGGGS (amide I:13-IV:C, I:14-II:C, II:13-III:C) [SVH1C, [NPSHPLSGGGGS]4K3-NH2]",cytotoxicity,cells,did not exhibit cytotoxicity
same,viability at 72 h,MTS cell viability assay,100 ± 2%
same,Kd,NKG2D,~1 µM
[NQHTPRGGGS]4K3-NH2 [SV6D],binding to Siglec-1,Siglec-1,not
same,binding to dectin-1,dectin-1,bound strongly
same,binding to CLEC9a,CLEC9a,not
same,binding to CLEC10a,CLEC10a,bound strongly
same,binding to DC-SIGN,DC-SIGN,not
same,binding to ASGPR-1,ASGPR-1,bound strongly
same,progression of ascites,ovarian cancer cell line,effectively inhibited
same,binding to langerin,langerin,bound strongly
fetuin,inhibition of binding of SVH1C to siglecs,siglecs,inhibited
same,inhibition of binding of SVH1C to NKG2D,NKG2D,inhibited
sialyllactose,inhibition of binding of SVH1C to NKG2D,NKG2D,inhibited
